Results reported in the NIST ThermoML archive (doi:10.1021/je0501843).
Numbers after ± are expanded uncertainties.

Test: wn = mass fraction of the nth substance listed
Settings: Fluid (supercritical or subcritical phases), isochoric method, w1 = 0.5001

FC(F)C(F)(F)F [pentafluoroethane] + FCF
Settings	mass density [kg/m3]
363 K, 13894 kPa	858.1 ± 1.7
364 K, 6970 kPa	475.8 ± 1.3
364 K, 7223 kPa	525.7 ± 1.3
364 K, 7494 kPa	571.2 ± 1.3
364 K, 7828 kPa	614.6 ± 1.4
364 K, 10192 kPa	760.2 ± 1.6
364 K, 14207 kPa	858 ± 1.7
365 K, 7077 kPa	475.8 ± 1.2
365 K, 7344 kPa	525.7 ± 1.3
365 K, 7632 kPa	571.2 ± 1.3
365 K, 7982 kPa	614.6 ± 1.3
365 K, 10427 kPa	760.1 ± 1.6
365 K, 14520 kPa	857.9 ± 1.7
366 K, 7184 kPa	475.8 ± 1.2
366 K, 7465 kPa	525.6 ± 1.2
366 K, 7771 kPa	571.1 ± 1.3
366 K, 8137 kPa	614.5 ± 1.3
366 K, 10664 kPa	760 ± 1.6
366 K, 14835 kPa	857.8 ± 1.7
367 K, 7291 kPa	475.8 ± 1.2
367 K, 7587 kPa	525.6 ± 1.2
367 K, 7907 kPa	571.1 ± 1.3
367 K, 8294 kPa	614.5 ± 1.3
367 K, 10900 kPa	760 ± 1.6
367 K, 15148 kPa	857.7 ± 1.7
368 K, 7397 kPa	475.8 ± 1.2
368 K, 7708 kPa	525.6 ± 1.2
368 K, 8044 kPa	571.1 ± 1.3
368 K, 8449 kPa	614.5 ± 1.3
368 K, 11133 kPa	759.9 ± 1.6
368 K, 15462 kPa	857.7 ± 1.7
369 K, 7504 kPa	475.7 ± 1.2
369 K, 7831 kPa	525.6 ± 1.2
369 K, 8183 kPa	571 ± 1.3
369 K, 8605 kPa	614.4 ± 1.3
369 K, 11369 kPa	759.9 ± 1.6
369 K, 15777 kPa	857.6 ± 1.7
370 K, 7612 kPa	475.7 ± 1.1
370 K, 7953 kPa	525.5 ± 1.2
370 K, 8323 kPa	571 ± 1.3
370 K, 8762 kPa	614.4 ± 1.3
370 K, 11608 kPa	759.8 ± 1.5
370 K, 16094 kPa	857.5 ± 1.7
371 K, 7719 kPa	475.7 ± 1.1
371 K, 8075 kPa	525.5 ± 1.2
371 K, 8460 kPa	571 ± 1.2
371 K, 8917 kPa	614.3 ± 1.3
371 K, 11844 kPa	759.7 ± 1.5
371 K, 16410 kPa	857.4 ± 1.7
372 K, 7825 kPa	475.7 ± 1.1
372 K, 8198 kPa	525.5 ± 1.2
372 K, 8601 kPa	571 ± 1.2
372 K, 9073 kPa	614.3 ± 1.3
372 K, 12081 kPa	759.7 ± 1.5
372 K, 16724 kPa	857.4 ± 1.7
373 K, 7931 kPa	475.7 ± 1.1
373 K, 8321 kPa	525.5 ± 1.2
373 K, 8740 kPa	570.9 ± 1.2
373 K, 9230 kPa	614.3 ± 1.3
373 K, 12318 kPa	759.6 ± 1.5
373 K, 17037 kPa	857.3 ± 1.7
374 K, 8039 kPa	475.6 ± 1.1
374 K, 8445 kPa	525.4 ± 1.2
374 K, 8878 kPa	570.9 ± 1.2
374 K, 9389 kPa	614.2 ± 1.3
374 K, 12556 kPa	759.6 ± 1.5
374 K, 17355 kPa	857.2 ± 1.7
375 K, 8147 kPa	475.6 ± 1.1
375 K, 8567 kPa	525.4 ± 1.2
375 K, 9016 kPa	570.9 ± 1.2
375 K, 9544 kPa	614.2 ± 1.3
375 K, 12795 kPa	759.5 ± 1.5
375 K, 17669 kPa	857.1 ± 1.7
376 K, 8254 kPa	475.6 ± 1.1
376 K, 8690 kPa	525.4 ± 1.1
376 K, 9155 kPa	570.8 ± 1.2
376 K, 9701 kPa	614.2 ± 1.3
376 K, 13033 kPa	759.5 ± 1.5
376 K, 17984 kPa	857.1 ± 1.7
377 K, 8362 kPa	475.6 ± 1.1
377 K, 8813 kPa	525.4 ± 1.1
377 K, 9295 kPa	570.8 ± 1.2
377 K, 9858 kPa	614.1 ± 1.3
377 K, 13272 kPa	759.4 ± 1.5
377 K, 18301 kPa	857 ± 1.7
378 K, 8469 kPa	475.6 ± 1.1
378 K, 8937 kPa	525.3 ± 1.1
378 K, 9437 kPa	570.8 ± 1.2
378 K, 10018 kPa	614.1 ± 1.3
378 K, 13511 kPa	759.3 ± 1.5
378 K, 18619 kPa	856.9 ± 1.7
379 K, 8575 kPa	475.5 ± 1.1
379 K, 9060 kPa	525.3 ± 1.1
379 K, 9576 kPa	570.7 ± 1.2
379 K, 10174 kPa	614 ± 1.3
379 K, 13747 kPa	759.3 ± 1.5
379 K, 18935 kPa	856.8 ± 1.7
380 K, 8683 kPa	475.5 ± 1
